Test system: Drosophila
Assay: Drosophila development, viability and life span on compound food
Type: in vivo

SMILES: CC1(C)OB(c2ccc(/C=C/c3ccc(O)cc3)cc2)OC1(C)C [BF102]
- Drosophila development and viability (200 μM in food): do not affect
- life span of adult flies (adult flies fed food mixed with compound, data not shown): do not have any obvious effect

— patent publication US9988403B2, “Compositions and methods for treating cancer with aberrant lipogenic signaling” (Thomas Jefferson University, priority 2012, dated 2018)
